Assays:
[1] = target: ACL (Homo sapiens (Human), UniProt P53396); test: ADP-Glo Assay; format: biochemical; conditions: 3 nM ACL, 15 μM ATP, 3 μM CoA, 300 μM Citrate
Procedure: Example 28. ADP-Glo Assay
Compounds of the present invention were evaluated in an ADP-GLO assay as follows: a) Dilute cpd 1:3 in succession in DMSO by hand for each cpds for 12 pts b) Add 0.1 μL diluted cpd solution to assay plate, each dose with 2 replicates c) Centrifuge 1000 RPM for 1 min d) Add 5 μL ACL working solution to 384-well assay plate, centrifuge 1000 RPM for 1 min e) Incubate at 25° C. for 15 min f) Add 5 μL substrate working solution to initiate reaction g) Final ACL reaction concentrations: 3 nM ACL, 15 μM ATP, 3 μM CoA, 300 μM Citrate, 0.01% Brij35, 4 mM DTT, 1% DMSO; h) Reference final conc: 30 uM starting Conc, 3× dilution, 11+0 points. Test cpd conc: 30/100 uM starting Conc, 3× dilution, 11+0 points. i) Incubate at 25° C. for 60 min j) Add 10 μL ADP Glo reagent, centrifuge 1000 RPM for 1 min k) Incubate at 25° C. for 40 min l) Add 20 μL kinase detection reagent, centrifuge 1000 RPM for 1 min m) Incubate at 25° C. for 40 min n) Read on Envision for US LUM as RLU

[2] = tested on: HepG2 cells; test: ACLY HepG2 14C-pyruvate incorporation assay with serum (IC50 Cholesterol); format: cell-based; conditions: Homo sapiens, Table 7, with serum, IC50 Cholesterol per table title and b713 (column head prints Fatty Acid), read-out: ACLY HepG2 ^14C- Pyruvate Assay with serum IC50 Fatty Acid 96 well (IC50)
Procedure: (§1) Example 30. ACLY HepG2 ^14C-Pyruvate Incorporation Assay with Serum
(§2) Compounds of the invention were also assayed in an ACLY HepG2 ^14C-pyruvate incorporation assay with serum (IC50 Cholesterol) and (IC50 Fatty Acid). The protocol of the assay (below) was followed:
(§3) HepG2 cells were seed at 5 k cells/well in 96-well cell culture plate in DMEM with 10% FBS (heat inactivated and 25 mM glucose). After 48 hours, the medium was replaced with fresh medium containing 10% FBS (heat inactivated and 25 mM glucose).
(§4) After 18 hours, the medium was replaced with 200 uL of DMEM (5.5 mM glucose without pyruvate) with or without FBS containing compounds (30, 10, 3.33, 1.11, 0.370, 0.123, 0.041 uM). DMSO concentration was 0.5%. The cells were incubated with compounds at 37° C. for 1 hour.
(§5) 2 μci of [14C]-pyruvate was added per well and the cell samples were incubated at 37° C., 5% CO2 for 5 hours.
(§6) The medium was removed and placed into a 96-well polypropylene deep well plate. 200 uL of 0.1N NaOH was added to each well at room temperature to dissolve cell monolayer. The remaining cell suspension was pooled with medium in a 96-well polypropylene deep well plate. 68 uL of 50% KOH was added to the plate containing medium and cell suspensions and capped.
(§7) Cells were incubated at 70° C. for 1 hour, and then cooled to room temperature.
6. Cholesterol Extraction
1 mL petroleum ether was added per well to extract non-saponifyable lipids (primarily sterols such as cholesterol), shaken vigorously, and centrifuged at 1000 rpm for 5 minutes. 500 μL of the petroleum ether layer was then transferred to a 96 well plate and 200 ul of H2O was added, shaken vigorously, and centrifuged at 1000 rpm for 5 minutes. The petroleum ether layer 500 ul was transferred to a new 96-well plate and evaporated to dryness with SpeedVac overnight. 200 μL of scintillation cocktail was then added and shaken and transferred to a 96 well optiplate and counted using the Microbeta Liquid Scintillation Counter.

[3] = tested on: HepG2 cells; test: ACLY HepG2 14C-pyruvate incorporation assay with serum (IC50 Fatty Acid); format: cell-based; conditions: Homo sapiens, Table 8, with serum, read-out: ACLY HepG2 ^14C- Pyruvate Assay with serum IC50 Fatty Acid 96 well (IC50)
Procedure: as §1, §2, §3, §4, §5, §6, §7
400 ul of the remaining 500 ul petroleum ether layer was removed and discard. 1 mL petroleum ether was added to the well, shaken vigorously, and centrifuged at 1000 rpm for 5 minutes. All 1100 ul of the petroleum ether layer removed and discarded. The aqueous phase was then acidified with 500 uL of concentrated HCl, checking pH of one or two extracts to make sure pH below 1 (critical, check by PH paper).
8. Fatty acids extraction
1 mL of petroleum ether was added per well to extract saponifyable lipids (extracted as fatty acids originating from saponified lipids such as triglycerides and phospholipids), shaken vigorously, centrifuged at 1000 rpm for 5 min, and 500 uL of the petroleum ether layer was then transferred to a new 96-well deep well plate. Repeat petroleum ether extraction step one more time and pool the petroleum ether extracts. Evaporate to dryness with SpeedVac overnight. 200 μL of scintillation cocktail was added and shaken and transferred to a 96 well optiplate and counted using the Microbeta Liquid Scintillation Counter.

[4] = tested on: ACC1; conditions: ACC1 isolated from rat, mouse, monkey and human; cited from earlier work
[5] = tested on: ACC2; conditions: ACC2 isolated from rat, mouse, monkey and human; cited from earlier work

Chain of ACL (P53396 whole entry, species assumed): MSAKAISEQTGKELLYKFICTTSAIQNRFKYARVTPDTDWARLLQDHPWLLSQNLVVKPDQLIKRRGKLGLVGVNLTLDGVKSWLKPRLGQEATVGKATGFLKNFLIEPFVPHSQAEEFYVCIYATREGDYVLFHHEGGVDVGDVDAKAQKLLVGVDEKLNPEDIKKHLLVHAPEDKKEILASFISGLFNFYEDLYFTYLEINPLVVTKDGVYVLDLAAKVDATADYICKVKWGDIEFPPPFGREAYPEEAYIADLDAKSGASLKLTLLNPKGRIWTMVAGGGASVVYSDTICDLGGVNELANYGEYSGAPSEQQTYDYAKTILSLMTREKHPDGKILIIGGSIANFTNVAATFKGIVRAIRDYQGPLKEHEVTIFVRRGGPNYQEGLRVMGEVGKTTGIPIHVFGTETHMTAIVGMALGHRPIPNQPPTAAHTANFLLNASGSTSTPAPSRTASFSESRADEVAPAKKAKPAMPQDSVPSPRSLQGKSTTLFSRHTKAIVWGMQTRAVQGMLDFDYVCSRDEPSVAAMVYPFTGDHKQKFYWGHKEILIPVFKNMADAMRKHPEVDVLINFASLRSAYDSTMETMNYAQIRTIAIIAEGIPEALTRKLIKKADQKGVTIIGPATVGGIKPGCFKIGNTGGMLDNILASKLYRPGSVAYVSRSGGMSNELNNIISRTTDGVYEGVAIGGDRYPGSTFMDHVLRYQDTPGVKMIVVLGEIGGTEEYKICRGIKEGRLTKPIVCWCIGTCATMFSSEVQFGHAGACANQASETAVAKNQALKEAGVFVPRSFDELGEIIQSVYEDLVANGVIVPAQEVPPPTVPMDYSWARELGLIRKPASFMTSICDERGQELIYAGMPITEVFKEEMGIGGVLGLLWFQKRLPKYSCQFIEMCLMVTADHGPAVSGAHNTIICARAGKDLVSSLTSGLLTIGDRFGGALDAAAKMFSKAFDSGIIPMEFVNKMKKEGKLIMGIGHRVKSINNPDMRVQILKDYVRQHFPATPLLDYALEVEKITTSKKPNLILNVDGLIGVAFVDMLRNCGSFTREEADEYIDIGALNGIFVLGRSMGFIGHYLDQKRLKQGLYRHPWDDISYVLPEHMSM

Row | SMILES | IC50 [1] [µM] | IC50 [2] [µM] | IC50 [3] [µM] | IC50 [4] [µM] | IC50 [5] [µM]
1 | O=S(=O)(c1cc(F)cc(F)c1O)n1c(-c2ccccc2)cc2cc(Cl)ccc21 [I-61] | 0.5 to 20 | ≤ 10 | ≤ 10 | – | –
2 | O=S(=O)(c1cc(Br)cc(Cl)c1O)n1c(-c2ccccc2)cc2cc(F)ccc21 [I-42] | 0.5 to 20 | ≤ 10 | ≤ 10 | – | –
3 | Cc1c(-c2ccccc2)n(S(=O)(=O)c2cc(Br)cc(Cl)c2O)c2ccc(Cl)cc12 [I-47] | 0.5 to 20 | ≤ 10 | ≤ 10 | – | –
4 | O=C(c1c2ccccc2cc2ccccc12)N1CCC(N2CCC[C@@H](C(=O)N3CCOCC3)C2)CC1 [CP-640186] | – | – | – | ~0.06 | ~0.06
5 | O=S(=O)(c1cc(Br)cc(Cl)c1O)n1c(-c2ccc(OC(F)(F)F)cc2)cc2cc(Cl)ccc21 [I-25, 4-bromo-2-chloro-6-((5-chloro-2-(4-(trifluoromethoxy)phenyl)-1H-indol-1-yl)sulfonyl)phenol] | 0.5 to 20 | ≤ 10 | ≤ 10 | – | –
6 | O=S(=O)(c1cc(Br)cc(Cl)c1O)n1c(-c2cncs2)cc2cc(Cl)ccc21 [I-33, 4-bromo-2-chloro-6-((5-chloro-2-(thiazol-5-yl)-1H-indol-1-yl)sulfonyl)phenol] | 0.5 to 20 | ≤ 10 | ≤ 10 | – | –
7 | COc1ccc(-c2cc3cc(Cl)ccc3n2S(=O)(=O)c2cc(Br)cc(Cl)c2O)cn1 [I-28, 4-bromo-2-chloro-6-((5-chloro-2-(6-methoxypyridin-3-yl)-1H-indol-1-yl)sulfonyl)phenol] | 0.5 to 20 | ≤ 10 | ≤ 10 | – | –
8 | O=S(=O)(c1cc(Br)cc(Cl)c1O)n1c(-c2ccccc2)cc2cc(Cl)ccc21 [I-1, 4-bromo-2-chloro-6-((5-chloro-2-phenyl-1H-indol-1-yl)sulfonyl)phenol] | 0.5 to 20 | ≤ 10 | ≤ 10 | – | –
9 | N#Cc1ccc2c(c1)cc(-c1ccccc1)n2S(=O)(=O)c1cc(Br)cc(Cl)c1O [I-48] | 0.5 to 20 | ≤ 10 | ≤ 10 | – | –
10 | COc1ccc(-c2cc3cc(Cl)ccc3n2S(=O)(=O)c2cc(Br)cc(Cl)c2O)cc1 [I-26, 4-bromo-2-chloro-6-((5-chloro-2-(4-methoxyphenyl)-1H-indol-1-yl)sulfonyl)phenol] | 0.5 to 20 | ≤ 10 | ≤ 10 | – | –
11 | O=S(=O)(c1cc(Br)cc(Cl)c1O)n1c(-c2cccc(F)c2)cc2cc(Cl)ccc21 [I-40] | 0.5 to 20 | ≤ 10 | ≤ 10 | – | –
12 | Cc1cc2cc(Cl)ccc2n1S(=O)(=O)c1cc(Br)cc(Cl)c1O [I-30, 4-bromo-2-chloro-6-((5-chloro-2-methyl-1H-indol-1-yl)sulfonyl)phenol] | 0.5 to 20 | ≤ 10 | ≤ 10 | – | –
13 | Cc1ncncc1-c1cc2cc(Cl)ccc2n1S(=O)(=O)c1cc(F)cc(F)c1O [I-102] | 0.5 to 20 | – | – | – | –
14 | O=C(O)c1ccccc1-c1cc2cc(Cl)ccc2n1S(=O)(=O)c1cc(Br)cc(Cl)c1O [I-27, 2-(1-((5-bromo-3-chloro-2-hydroxyphenyl)sulfonyl)-5-chloro-1H-indol-2-yl)benzoic acid] | 0.5 to 20 | – | – | – | –
15 | O=C(O)c1cccc(-c2cc3cc(Cl)ccc3n2S(=O)(=O)c2cc(Cl)cc(Cl)c2)c1 [I-84] | 0.5 to 20 | – | – | – | –
16 | N#Cc1ccc2c(c1)cc(-c1ccc(OC(F)(F)F)cc1)n2S(=O)(=O)c1cc(F)cc(F)c1O [I-81] | 0.5 to 20 | ≤ 10 | ≤ 10 | – | –
17 | N#Cc1ccc2c(c1)cc(-c1cc3ccccc3s1)n2S(=O)(=O)c1cc(Br)cc(Cl)c1O [I-161] | 0.5 to 20 | – | – | – | –
18 | O=S(=O)(c1cc(Cl)cc(Cl)c1O)N1CC(O)(c2ccc(Cl)cc2)C1 [I-9] | 0.5 to 20 | – | – | – | –
19 | COC(=O)c1cc(Cl)c(O)c(S(=O)(=O)N2CCc3ccc(-c4ccccc4)cc32)c1 [I-2] | 0.5 to 20 | – | – | – | –
20 | O=C(O)c1sccc1S(=O)(=O)n1c(-c2ccccc2)cc2cc(Cl)ccc21 [I-71] | 0.5 to 20 | – | – | – | –
21 | O=C(O)c1c(-c2ccccc2)c2cc(Cl)ccc2n1S(=O)(=O)c1cc(Cl)cc(Cl)c1 [I-104] | 0.5 to 20 | – | – | – | –

— patent publication US11492341B2, “ACLY inhibitors and uses thereof” (Nimbus Artemis, Inc., priority 2018, dated 2022)
